Experimental data reported in patent publication US20240360114A1 (SIRONAX LTD., priority 2021, published 2024).

test system: HT-1080 cells; experiment: HT-1080 cell viability assay (ferroptosis induced by RSL3, Cell Titer-Glo); assay type: cell-based; conditions: Homo sapiens, HT-1080, 20 h, ferroptosis inducer RSL3, 20 hours, ferroptosis inhibitory activity, Table 2
How it was run: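 EC50 fitted by sigmoidal dose-response regression on luminescent viability data normalized to untreated cells. Compounds ran as a 10-point, 3-fold series from 1.1 μM alongside RSL3 for 20 hours, after overnight seeding.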

Question: For CCCc1ccc(NC2CCC(C)(N)CC2)cc1 (stereo not drawn) [Compound 278, 1-methyl-N4-(4-propylphenyl)cyclohexane-1,4-diamine], which EC50 is on record?
Answer: 0.1 to 100 nM

Question: Cc1nc(N(C)CC(F)(F)F)ccc1NC1CC2(CC(N)C2)C1 (stereo not drawn) [Compound 558, N^5-(6-aminospiro [3.3]heptan-2-yl)-N2,6-dimethyl-N2-(2,2,2-trifluoroethyl)pyridine-2,5-diamine] was tested. Which EC50 did it give?
Answer: 0.1 to 100 nM

Question: For NC1CCC(Nc2ccc(N3CCC(C(F)(F)F)CC3)cc2OCCO)CC1 (stereo not drawn) [Compound 485, 2-(2-((4-aminocyclohexyl)amino)-5-(4-(trifluoromethyl)piperidin-1-yl)phenoxy) ethan-1-ol], which EC50 is on record?
Answer: 0.1 to 100 nM

Question: How did the EC50 turn out when Cc1nc(N2CC(C)OC(C)C2)ccc1NC1CC2CCC1CC2N (stereo not drawn) [Compound 553, N2-(6-(2,6-dimethylmorpholino)-2-methylpyridin-3-yl)bicyclo[2.2.2]octane-2,5-diamine] was run?
Answer: 100 to 1000 nM

Question: With Cc1nc(N2CCC3(CCCOC3)CC2)ccc1NC1CC2(CC(N)C2)C1 (stereo not drawn) [Compound 533, N2-(2-methyl-6-(2-oxa-9-azaspiro [5.5]undecan-9-yl)pyridin-3-yl)spiro[3.3]heptane-2,6-diamine] as the molecule, how does the EC50 read?
Answer: 0.1 to 100 nM

Question: With NC1CCC(Nc2cc(F)c(N3CCC(C(F)(F)F)CC3)c(F)c2)CC1 (stereo not drawn) [Compound 54A, N1-(3,5-difluoro-4-(4-(trifluoromethyl)piperidin-1-yl)phenyl)cyclohexane-1,4-diamine] as the molecule, how does the EC50 read?
Answer: 0.1 to 100 nM

Question: CC(C)(C)c1ccc(NC2CCC(N)CC2)cc1Cl (stereo not drawn) [Compound 201, N1-(4-(tert-butyl)-3-chlorophenyl)cyclohexane-1,4-diamine] was tested. Which EC50 did it give?
Answer: 100 to 1000 nM

Question: How did the EC50 turn out when CC1CCC(Nc2ccc(C3CCCCC3)cc2)CC1 (stereo not drawn) [Compound 269, 4-cyclohexyl-N-(4-methylcyclohexyl)aniline] was run?
Answer: 100 to 1000 nM

Question: For NC(=O)C1CCC(Nc2ccc3cc(N4CCC(C(F)(F)F)CC4)ccc3c2)CC1 (stereo not drawn) [Compound 563, 4-((6-(4-(trifluoromethyl)piperidin-1-yl)naphthalen-2-yl)amino)cyclohexane-1-carboxamide], which EC50 is on record?
Answer: 0.1 to 100 nM

Question: How did the EC50 turn out when CC1CC(Nc2ccc(C(C)(C)C)cc2)CCC1O (stereo not drawn) [Compound 233A] was run?
Answer: 100 to 1000 nM

Question: N[C@H]1CC[C@@H](Nc2ccc(N3CCC(C(F)(F)F)CC3)cc2)CC1 [Compound 355, (1s,4s)-N1-(4-(4-(trifluoromethyl)piperidin-1-yl)phenyl)cyclohexane-1,4-diamine] was tested. Which EC50 did it give?
Answer: 0.1 to 100 nM

Question: With CC1(N)CCC(Nc2ccc3c(c2)CCCC3)CC1 (stereo not drawn) [Compound 119, 1-methyl-N4-(5,6,7,8-tetrahydronaphthalen-2-yl)cyclohexane-1,4-diamine] as the molecule, how does the EC50 read?
Answer: 0.1 to 100 nM

Question: Cc1nc(N2CC3CC(C2)O3)ccc1NC1CC2(CC(N)C2)C1 (stereo not drawn) [Compound 524, N2-(6-(6-oxa-3-azabicyclo[3.1.1]heptan-3-yl)-2-methylpyridin-3-yl)spiro[3.3]heptane-2,6-diamine] was tested. Which EC50 did it give?
Answer: 100 to 1000 nM

Question: With CC1CC(C)CN(c2ccc(NC[C@H]3CC[C@H](N)CC3)cc2)C1 (stereo partly drawn) [Compound 522, N-(((1r,4r)-4-aminocyclohexyl)methyl)-4-(3,5-dimethylpiperidin-1-yl)aniline] as the molecule, how does the EC50 read?
Answer: 0.1 to 100 nM

Question: CC(C)(C)c1ccc(NC2CCC(NC(=O)[C@H]3CNC(=O)N3)CC2)cc1 (single isomer, unassigned) [Compound 115A] was tested. Which EC50 did it give?
Answer: 100 to 1000 nM

Question: Which EC50 does the source give for Cc1cc(NC2CC(C(N)=O)C2)ccc1N1CCC(C(F)(F)F)CC1 (stereo not drawn) [Compound 437, 3-((3-methyl-4-(4-(trifluoromethyl)piperidin-1-yl)phenyl)amino)cyclobutane-1-carboxamide] here?
Answer: 0.1 to 100 nM

Question: NC1CCC(CNc2ccc(N3CCS(=O)(=O)CC3)cc2)CC1 (stereo not drawn) [Compound 449, 4-(4-(((4-aminocyclohexyl)methyl)amino)phenyl) thiomorpholine 1,1-dioxide] was tested. Which EC50 did it give?
Answer: 1000 to 10000 nM

Question: How did the EC50 turn out when Cc1cc(C)c(NC2CCC(CN)CC2)c(C)c1 (stereo not drawn) [Compound 210, N-[4-(aminomethyl)cyclohexyl]-2,4,6-trimethylaniline] was run?
Answer: 1000 to 10000 nM

Question: CC1(C)CN(c2ccc(NC[C@H]3CC[C@H](N)CC3)cc2F)CC(C)(C)O1 [Compound 513, N-(((1r,4r)-4-aminocyclohexyl)methyl)-3-fluoro-4-(2,2,6,6-tetramethylmorpholino)aniline] was tested. Which EC50 did it give?
Answer: 0.1 to 100 nM

Question: For Cc1nc(N2CC(C)OC(C)C2)ccc1NC1C2CC3CC1CC(CN)(C3)C2 (stereo not drawn) [Compound 475A, N-(5-(aminomethyl)adamantan-2-yl)-6-(2,6-dimethylmorpholino)-2-methylpyridin-3-amine], which EC50 is on record?
Answer: 0.1 to 100 nM

Question: CCc1ccc(NC2CCC(N)CC2)cc1 (stereo not drawn) [Compound 125, N1-(4-ethylphenyl)cyclohexane-1,4-diamine] was tested. Which EC50 did it give?
Answer: 100 to 1000 nM

Question: CC1(C)CCC(c2ccc(NC3CCC(CNC(=O)[C@H]4CC(=O)NC(=O)N4)CC3)cc2)CC1 (single isomer, unassigned) [Compound 148A] was tested. Which EC50 did it give?
Answer: 0.1 to 100 nM

Question: CCC(C)(C)c1ccc(NC2CCC(N)(CO)CC2)cc1 (stereo not drawn) [Compound 296A, (1-amino-4-((4-(tert-pentyl)phenyl)amino)cyclohexyl)methanol] was tested. Which EC50 did it give?
Answer: 0.1 to 100 nM

Question: Which EC50 does the source give for C[C@@H](O)[C@H](N)C(=O)NC1CCC(Nc2ccc(C(C)(C)C)cc2)CC1 (stereo partly drawn) [Compound 214, (2S, 3R)-2-amino-N-(4-((4-(tert-butyl)phenyl)amino)cyclohexyl)-3-hydroxybutanamide] here?
Answer: 0.1 to 100 nM

Question: How did the EC50 turn out when N[C@H]1CC[C@H](CNc2ccc(C3CCN(CC(F)(F)F)CC3)cc2)CC1 [Compound 559, N-(((1r, 4r)-4-aminocyclohexyl)methyl)-4-(1-(2,2,2-trifluoroethyl)piperidin-4-yl)aniline] was run?
Answer: 0.1 to 100 nM

Question: How did the EC50 turn out when CCc1nc(N2C[C@@H](C)O[C@@H](C)C2)ccc1NC1CC2(CC(N)C2)C1 (stereo partly drawn) [Compound 545, N^2-(6-((2S,6R)-2,6-dimethylmorpholino)-2-ethylpyridin-3-yl)spiro[3.3]heptane-2,6-diamine] was run?
Answer: 0.1 to 100 nM

Question: Which EC50 does the source give for Cc1cc(N2CC(C)OC(C)C2)c(F)cc1NC[C@H]1CC[C@H](N)CC1 (stereo partly drawn) [Compound 432, N-(((1r,4r)-4-aminocyclohexyl)methyl)-4-(2,6-dimethylmorpholino)-5-fluoro-2-methylaniline] here?
Answer: 0.1 to 100 nM

Question: Which EC50 does the source give for CCOCCN(CCCCOC)CCNc1ccc(C(C)(C)C)cc1 [Compound 256, N1-(4-(tert-butyl)phenyl)-N2-(2-ethoxyethyl)-N2-(4-methoxybutyl) ethane-1,2-diamine] here?
Answer: 1000 to 10000 nM

Question: Which EC50 does the source give for O=C(NO)C1CC2(CC(Nc3cnc(N4CCC(C(F)(F)F)CC4)nc3)C2)C1 (stereo not drawn) [Compound 428, N-hydroxy-6-((2-(4-(trifluoromethyl)piperidin-1-yl)pyrimidin-5-yl)amino)spiro[3.3]heptane-2-carboxamide] here?
Answer: 0.1 to 100 nM

Question: How did the EC50 turn out when Cc1cc(N2CCCCC2)ccc1NC[C@H]1CC[C@H](N)CC1 [Compound 379, N-(((1r,4r)-4-aminocyclohexyl)methyl)-2-methyl-4-(piperidin-1-yl)aniline] was run?
Answer: 0.1 to 100 nM

Question: CC(C)C1CCN(c2ncc(NC3CC4(CC(NCC(F)(F)F)C4)C3)cn2)CC1 (stereo not drawn) [Compound 414, N2-(2-(4-isopropylpiperidin-1-yl)pyrimidin-5-yl)-N6-(2,2,2-trifluoroethyl)spiro[3.3]heptane-2,6-diamine] was tested. Which EC50 did it give?
Answer: 0.1 to 100 nM

Question: Which EC50 does the source give for CC1(C)CCC(c2ccc(NCCNC(=O)[C@H]3CNC(=O)N3)cc2)CC1 [Compound 158, (R)—N-(2-((4-(4,4-dimethylcyclohexyl)phenyl)amino)ethyl)-2-oxoimidazolidine-4-carboxamide] here?
Answer: 100 to 1000 nM

Question: How did the EC50 turn out when CC(C)(C)c1ccc(NC2CCC(NCC(F)(F)F)CC2)cc1 (stereo not drawn) [Compound 168A, N-(4-(tert-butyl)phenyl)-N-(2,2,2-trifluoroethyl)cyclohexane-1,4-diamine] was run?
Answer: 1000 to 10000 nM

Question: How did the EC50 turn out when NC1C[C@@H]2CC(Nc3ccc(N4CCC(C(F)(F)F)CC4)cc3)C[C@@H]2C1 (stereo partly drawn) [Compound 363, (3aR, 6aS)-N2-(4-(4-(trifluoromethyl)piperidin-1-yl)phenyl) octahydropentalene-2,5-diamine] was run?
Answer: 0.1 to 100 nM

Question: NC1CCC(Nc2ccc3c(c2)CCC3)CC1 (stereo not drawn) [Compound 162, N1-(2,3-dihydro-1H-inden-5-yl)cyclohexane-1,4-diamine] was tested. Which EC50 did it give?
Answer: 100 to 1000 nM

Question: Which EC50 does the source give for CC(C)(C)c1ccc(NC2CCC(C(N)=O)CC2)cc1 (stereo not drawn) [Compound 192, 4-((4-(tert-butyl)phenyl)amino)cyclohexane-1-carboxamide] here?
Answer: 100 to 1000 nM

same assay, conditions: Homo sapiens, HT-1080, 20 h, ferroptosis inducer RSL3, 20 hours, ferroptosis inhibitory activity, Table 3

Question: With COC(C)(C)C1CCN(c2ccc(NC3CC(N)C3)c(C)n2)CC1 (stereo not drawn) [Compound 591] as the molecule, how does the EC50 read?
Answer: 100 to 1000 nM

Question: With NC1CC2(C1)CC(Nc1ccc3cc(N4CCOCC4)ccc3c1)C2 (stereo not drawn) [Compound 614, N2-(6-morpholinonaphthalen-2-yl)spiro[3.3]heptane-2,6-diamine] as the molecule, how does the EC50 read?
Answer: 0.1 to 100 nM

Question: Which EC50 does the source give for Cc1nc(N2CC(C)N(CC(F)(F)F)C(C)C2)ccc1NC1CC(N)C1 (stereo not drawn) [Compound 619] here?
Answer: 0.1 to 100 nM

Question: Which EC50 does the source give for Cc1nc(N2CCN(C(=O)C(F)(F)F)C(C)C2)ccc1NC1CC2(CC(N)C2)C1 (stereo not drawn) [Compound 611, 1-(4-(5-((6-aminospiro[3.3]heptan-2-yl)amino)-6-methylpyridin-2-yl)-2-methylpiperazin-1-yl)-2,2,2-trifluoroethan-1-one] here?
Answer: 0.1 to 100 nM

Question: For C[C@@H]1CN(c2ccc(NC3CC4(CC(N)C4)C3)c(OC(F)F)n2)C[C@H](C)O1 (stereo partly drawn) [Compound 637, N^2-(2-(difluoromethoxy)-6-((25,6R)-2,6-dimethylmorpholino)pyridin-3-yl)spiro[3.3]heptane-2,6-diamine], which EC50 is on record?
Answer: 0.1 to 100 nM

same assay, conditions: Homo sapiens, ferroptosis inducer RSL3, 20 hours, ferroptosis inhibitory activity, Table 2

Question: Which EC50 does the source give for FC(F)(F)C1CCN(c2ccc(NC3CCNCC3)cc2)CC1 [Compound 20, N-(4-(4-(trifluoromethyl)piperidin-1-yl)phenyl)piperidin-4-amine] here?
Answer: 0.1 to 100 nM

Question: CC(C)(C)c1ccc(NC2CCN(S(N)(=O)=O)CC2)cc1 [Compound 180, 4-((4-(tert-butyl)phenyl)amino)piperidine-1-sulfonamide] was tested. Which EC50 did it give?
Answer: 100 to 1000 nM

same assay, conditions: ferroptosis inducer RSL3, 20 hours, ferroptosis inhibitory activity, Table 2

Question: Which EC50 does the source give for NC1CCC(Nc2ccc(N3CCCCC3CO)cc2)CC1 (single isomer, unassigned) [Compound 417B, (1-(4-((4-aminocyclohexyl)amino)phenyl)piperidin-2-yl)methanol] here?
Answer: 100 to 1000 nM

Question: CCC(C)(C)c1ccc(NC2CCC(NCCO)CC2)cc1 (single isomer, unassigned) [Compound 295B, 2-((4-((4-(tert-pentyl)phenyl)amino)cyclohexyl)amino)ethan-1-ol] was tested. Which EC50 did it give?
Answer: 0.1 to 100 nM
